From patent US20240408279A1, “SUPRAMOLECULAR-COVALENT COMPOSITE SLURRY FOR CARTILAGE REPAIR” (Northwestern University, priority 2021, published 2024)

Experiments:
[1] = system: osteochondral defect in the medial femoral condyle; test: Osteochondral defect repair, medial femoral condyle (ICRS macroscopic and modified O'Driscoll histology scoring); assay type: in vivo, sheep; settings: TGFβ (+); for median Macroscopic Score: 12-point scale; for median Histology Score: 24-point scale
Description: (§1) Osteochondral defect filling and regeneration: Skeletally mature female sheep were anesthetized and arthrotomy was performed bilaterally. One 3-4 mm deep and 7 mm diameter osteochondral defect was made in the medial femoral condyle of each stifle and one defect of the same dimensions in the femoral trochlear groove of each stifle. In one stifle, both defects were immediately filled with the PA/HA hybrid with 1 μg/mL TGFβ-1 preloaded as indicated. In the contralateral stifle, saline was immediately added to both defects, which was supplemented with TGFβ-1 at the same concentration as used in the material treated stifle. A calcium chloride solution was then dripped on top of each defect. […] allowed the sheep to stand on the hindlimbs. Samples of each sheep's synovial fluid was antiseptically drawn immediately prior to surgery and one week following surgery. After euthanasia, gross appearance of the defect areas was assessed the ICRS macroscopic scoring system (Ref. 59; incorporated by reference in its entirety) (Table 4). The samples were then fixed in formalin, decalcified the samples and prepared sections which were stained with H&E, with safranin O, or immunohistochemically for collagen II. Sections were scored using a modified O'Driscoll scoring system (Ref. 60; incorporated by reference in its entirety) (Table 5).
(§2) Preparation of material for surgical implant: Heat treated PA solutions prepared at 19 mM were combined with a 10 μg/mL TGFβ-1 solution (R&D Systems) dissolved in a 0.1% BSA, 4 mM HCl buffer or with the buffer alone at a 9:1 ratio. The combination was mixed by pipetting and kept on ice for 1 h. 900 μL of the mixed solution was added to 36 mg of crosslinked HA particles prepared under sterile conditions and allowed to hydrate for 1 h. The hybrid material was packed into a 1 mL syringe with a 19-gauge needle attached and kept on ice until use during surgery.
Animal study design: Animal work was performed at the University of Wisconsin, School of Veterinary Medicine, and all procedures were approved by the Institutional Animal Use and Care Committee. Thirty-six mature female sheep ranging in age from 2-7 (mean=3.7±1.7) years weighing between 60 and 100 (mean=74±8.3) kg were used in this study. Animals were divided into 6 groups: (1) 1 pilot sheep sacrificed at 1 week to assess material retention, (2) 6 sheep sacrificed at 4 weeks treated with PA and TGFβ-1, with 1 sheep sacrificed prior to 4 weeks due to patellar luxation and excluded from the analysis, (3) 6 sheep sacrificed at 4 weeks with PA, but without TGFβ-1 treatment, (4) 14 sheep sacrificed at 12 weeks with PA and TGFβ-1 treatment, with 4 sheep sacrificed prior to 12 weeks due to patellar luxation and excluded from analysis, (5) 6 sheep sacrificed at 12 weeks with PA but without TGFβ-1 treatment, with 2 sacrificed prior to 12 weeks due to patellar luxation and excluded from analysis, and (6) two sheep sacrificed at 24 weeks with PA and TGFβ-1 treatment.
Surgical technique: Prior to surgery the sheep were fasted for 24 h, and withheld water for 12 h. Sheep were administered a dose of Xylazine (0.1-0.22 mg/kg IM) in their pen to sedate them for transport to the surgical suite as well as a pre-operative dose of buprenorphine (0.0006-0.01 mg/kg IM) for analgesia. Sheep were then induced with ketamine-midazolam (2-10 mg/kg-0.1-0.3 mg/kg IM) and immediately intubated. Once intubated the sheep were maintained on isoflurane (0-4%) in 100% O2. At this time, a dose of Procaine Penicillin-G (10,000-20,000 IU/kg) IM was administered. Using aseptic techniques, a medial stifle arthrotomy was performed on both limbs of each sheep. In each stifle, one osteochondral defect was made in the medial femoral condyle and a second was made in the femoral trochlear groove using a Stryker EHD variable speed surgical drill and a cannulated drill bit. For the 24-week group, defects were made in the condyle only and not the trochlear groove. […]

[2] = system: osteochondral defect in the femoral trochlear groove; test: Osteochondral defect repair, femoral trochlear groove (ICRS macroscopic and modified O'Driscoll histology scoring); assay type: in vivo, sheep; settings: Trochlea, TGFβ (+), control = TGFβ-1 in saline; for median Macroscopic Score: 12-point scale; for median Histology Score: 24-point scale
Description: as §1, §2
Animal study design: Animal work was performed at the University of Wisconsin, School of Veterinary Medicine, and all procedures were approved by the Institutional Animal Use and Care Committee. Thirty-six mature female sheep ranging in age from 2-7 (mean=3.7±1.7) years weighing between 60 and 100 (mean=74±8.3) kg were used in this study. […]

[3] = 4 weeks, control = TGFβ-1 in saline
[4] = 12 weeks, control = TGFβ-1 in saline

Control: in TGFβ (+) groups: contralateral control defects filled with 1 μg/mL TGFβ-1 in saline solution
median Macroscopic Score [1, 3]: 5
median Histology Score [1, 3]: 9.7
median Macroscopic Score [1, 4]: 7
median Histology Score [1, 4]: 10
median Macroscopic Score ([1]; 24 weeks): 9
median Histology Score ([1]; 24 weeks): 15.3
median Macroscopic Score ([2]; 4 weeks): 5.7
median Histology Score ([2]; 4 weeks): 10.3
median Macroscopic Score ([2]; 12 weeks): 10.33
median Histology Score ([2]; 12 weeks): 11
